Values of other authors, collected in patent publication EP0275444A1, “Pharmaceutical form for urapidil” (BYK GULDEN LOMBERG CHEMISCHE FABRIK GMBH, priority 1986, dated 1988).
Where two headings read alike, the source gives them in different places.

Key:
[1] = in vivo

## OCCN(CCO)c1nc(N2CCCCC2)c2nc(N(CCO)CCO)nc(N3CCCCC3)c2n1 [Dipyridamol]
Above pH 4, in water
  Löslichkeit: praktisch wasserunlöslich

## COc1ccccc1N1CCN(CCCNc2cc(=O)n(C)c(=O)n2C)CC1 [Urapidil, 6-({3-[4-(o-Methoxyphenyl)-1-piperazinyl]propyl}amino)-1,3-dimethyluracil]
At the higher pH values of the intestine
  Löslichkeit: ausreichende Löslichkeit
[1]
  Eliminationshalbwertzeit: 2,7 Stunden
